Values quoted from earlier work as cited in patent US20210069110A1, “NON-AQUEOUS COMPOSITION HAVING DRUG CARRIED THEREIN, AND METHOD FOR PRODUCING SAME” (Techno Guard Co. Ltd., priority 2017, published 2021).

Details: General Notice of Japanese Pharmacopoeia

Row | Water solubility of drug (Expression in Japanese Pharmacopoeia) | Compound
1 | Practically insoluble | CCCCC[C@H](O)/C=C/[C@H]1[C@H](O)CC(=O)[C@@H]1CCCCCCC(=O)O [Prostaglandin E1]
2 | Practically insoluble | CO[C@H]1C(=O)[C@]2(C)[C@@H](OC)C[C@H]3OC[C@@]3(OC(C)=O)[C@H]2[C@H](OC(=O)c2ccccc2)[C@]2(O)C[C@H](OC(=O)[C@H](O)[C@@H](NC(=O)OC(C)(C)C)c3ccccc3)C(C)=C1C2(C)C [Cabazitaxel]
3 | Practically insoluble | CC(=O)O[C@@]12CO[C@@H]1C[C@H](O)[C@@]1(C)C(=O)[C@H](O)C3=C(C)[C@@H](OC(=O)[C@H](O)[C@@H](NC(=O)OC(C)(C)C)c4ccccc4)C[C@@](O)([C@@H](OC(=O)c4ccccc4)[C@H]21)C3(C)C [Docetaxel]
4 | Practically insoluble | CC(=O)O[C@H]1C(=O)[C@@]2(C)[C@H]([C@H](OC(=O)c3ccccc3)[C@]3(O)C[C@H](OC(=O)[C@H](O)[C@@H](NC(=O)c4ccccc4)c4ccccc4)C(C)=C1C3(C)C)[C@]1(OC(C)=O)CO[C@@H]1C[C@@H]2O [Paclitaxel]
